According to patent US20050148560A1, “Prevention and treatment of hypertensive heart diseases by the selective estrogens 8beta-vinyl-estra-1,3,5(10)-trien-3,17beta-diol and 17beta-fluor-9alpha-vinyl-estra-1,3,5(10)-trien-3,16alpha-diol” (priority 2003, published 2005):
“Also recorded” adds a separate entry of the source.

Legend:
[1] = test system: spontaneously hypertensive rats (SHR); test: In vivo hemodynamics in ovariectomized spontaneously hypertensive rats (SHR); design: species or system rat; settings: for cardiac output: FIG. 4; for blood pressure / effectiveness in lowering blood pressure relative to estradiol and the ERα agonist: ovx SHR, FIG. 3; for blood pressure: compared to vehicle treated (placebo) animals; for effectiveness in lowering blood pressure relative to estradiol and the ERα agonist: 30 μg/kg/d vs estradiol 2 μg/kg/d and ERα agonist 30 μg/kg/d
Text: The effects of the ERβ-agonists on blood pressure (BP) in ovariectomized SHR, a widely accepted animal model of hypertensive heart disease, were investigated in three independent studies. Estradiol and the steroidal ERα agonist 3,17β-Dihydroxy-19-nor-17α-pregna-1,3,5(10)-triene-21,16α-lactone were used as references. Female spontaneously hypertensive rats (SHR-Nico; 12 weeks old; Charles River Laboratories) were used for the experiment. All animals were kept under standard conditions (eg 12 hr ON/OFF light cycle, commercial diet and water ad libitum). Animals were randomly assigned to different treatment groups as outlined below. All animals were marked individually by ear tag. Female rats (SHR; 12 weeks old) were ovarectomized (ovx) and treated for 4 weeks starting one day after ovx according to the protocol outlined below. All compounds were injected daily using ethanol (EtOH)/peanut oil 4+1 as the vehicle. [table] 12 weeks old female SHR (Charles River™) were ovariectomized or sham-operated. Starting one day after ovariectomy animals were randomly selected for a daily subcutaneous injection of 17β-estradiol (E2, 2 μg/kg body weight/d), the selective ERα agonist 3,17β-Dihydroxy-19-nor-17α-pregna-1,3,5(10)-triene-21,16α-lactone (WO 02/26763) (30 μg/kg body weight/d), the selective ERβ agonist 8β-Vinyl-estra-1,3,5(10)-trien-3,17β-diol (or 17β-Fluor-9α-vinyl-estra-1,3,5(10)-trien-3,16α-diol, respectively 30 μg/kg body weight) or placebo. All animals had free access to standard rat chow and water. E2, 3,17β-Dihydroxy-19-nor-17α-pregna-1,3,5(10)-triene-21,16α-lactone and 8β-Vinyl-estra-1,3,5(10)-trien-3,17β-diol (or 17β-Fluor-9α-vinyl-estra-1,3,5(10)-trien-3,16α-diol) were dissolved in ethanol and injected daily using peanut oil as a carrier substance, placebo animals received ethanol/peanut oil alone. After 4 weeks treatment hemodynamic parameters were measured as described previously (Fraccarollo D, Hu K, Galuppo P, Gaudron P, Ertl G. (1997), Circulation. 1997;96:3963-3973) and animals were euthanized. The following parameters were determined: Systolic, diastolic, mean blood pressure; left ventricular ejection fraction; systolic and diastolic left ventricular pressure as well as the velocity of pressure increase and decrease in the left ventricle; cardiac output, cardiac index, heart rate; systemic vascular resistance. All measurements were performed at rest under isofluran anesthesia. Values are expressed as mean±SEM of parameters from different animals. Statistical analysis was performed by one-way analysis of variance (ANOVA) followed by a post hoc Bonferroni test. P values <0.05 were considered statistically significant.

[2] = Body weight of ovariectomized SHR; assay type: in vivo, rat; settings: daily sc injection for 4 weeks, 30 μg/kg/d (estradiol 2 μg/kg/d), FIG. 2
Text: (§1) The effects of the ERβ-agonists on blood pressure (BP) in ovariectomized SHR, a widely accepted animal model of hypertensive heart disease, were investigated in three independent studies. Estradiol and the steroidal ERα agonist 3,17β-Dihydroxy-19-nor-17α-pregna-1,3,5(10)-triene-21,16α-lactone were used as references. Female spontaneously hypertensive rats (SHR-Nico; 12 weeks old; Charles River Laboratories) were used for the experiment. All animals were kept under standard conditions (eg 12 hr ON/OFF light cycle, commercial diet and water ad libitum). Animals were randomly assigned to different treatment groups as outlined below. All animals were marked individually by ear tag. Female rats (SHR; 12 weeks old) were ovarectomized (ovx) and treated for 4 weeks starting one day after ovx according to the protocol outlined below. All compounds were injected daily using ethanol (EtOH)/peanut oil 4+1 as the vehicle. [table] 12 weeks old female SHR (Charles River™) were ovariectomized or sham-operated. […] After 4 weeks treatment hemodynamic parameters were measured as described previously (Fraccarollo D, Hu K, Galuppo P, Gaudron P, Ertl G. (1997), Circulation. 1997;96:3963-3973) and animals were euthanized.

[3] = test system: spontaneously hypertensive rats (SHR); test: Cardiac hypertrophy (heart weight) in ovariectomized SHR; assay type: in vivo, rat; settings: ovx SHR, 4 weeks daily sc; 30 μg/kg/d (estradiol 2 μg/kg/d), compared to placebo treated rats; FIG. 6
Text: as §1, with “[table]” for “[table] 12 weeks old female SHR (Charles River™) were ovariectomized or sham-operated.”, “euthanized. Cardiac hypertrophy in all animals was determined by measuring total heart weight and subsequent normalization to tibia length. Values are expressed as mean±SEM of parameters from different animals. […]” for “euthanized.”

[4] = target: T1, rat prostate estrogen receptor (ERβ containing cytosol) (Rattus norvegicus, UniProt Q62986); test: Estrogen receptor binding, competition with [3H]-estradiol, rat prostate cytosol (compared with rat uterus cytosol); settings: rat prostate cytosol (ERβ) vs rat uterus cytosol (ERα)
T1 construct: Receptor containing cytosol was prepared from rat prostate (ERβ containing cytosol); from tissue; host or cells: rat prostate cytosol
T1 sequence (Q62986 whole entry): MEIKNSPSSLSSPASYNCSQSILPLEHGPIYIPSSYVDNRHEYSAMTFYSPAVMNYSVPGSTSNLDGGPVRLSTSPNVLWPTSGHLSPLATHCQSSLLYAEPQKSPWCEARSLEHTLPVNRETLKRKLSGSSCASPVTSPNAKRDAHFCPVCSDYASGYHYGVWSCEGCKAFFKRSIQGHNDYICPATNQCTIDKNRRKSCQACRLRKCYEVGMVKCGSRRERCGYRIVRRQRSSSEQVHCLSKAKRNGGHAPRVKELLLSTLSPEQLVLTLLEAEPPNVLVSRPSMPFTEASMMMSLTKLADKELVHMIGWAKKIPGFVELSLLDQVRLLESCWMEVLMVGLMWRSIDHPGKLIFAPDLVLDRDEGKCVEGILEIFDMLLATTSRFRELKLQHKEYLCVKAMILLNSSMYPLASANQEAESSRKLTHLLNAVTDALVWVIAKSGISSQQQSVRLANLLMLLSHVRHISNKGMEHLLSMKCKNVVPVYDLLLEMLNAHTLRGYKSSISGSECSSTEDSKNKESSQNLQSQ
Experimental: The binding affinity of 8β-Vinyl-estra-1,3,5(10)-trien-3,17β-diol and 17β-Fluor-9α-vinyl-estra-1,3,5(10)-trien-3,16α-diol was determined by competition experiments using [3H]-estradiol as a ligand. Receptor containing cytosol was prepared from rat prostate (ERβ containing cytosol) and rat uterus (ERα containing cytosol).
The preparation of rat uterus cytosol and the binding study were performed as described (Stack, Gorski 1985, Endocrinology 117, 2024-2032) with some modifications as described by Fuhrmann et al. (Fuhrmann U. et al. 1995, Contraception 51: 45-52).
The preparation of rat prostate cytosol and the binding study was performed as described (Testas J. et al., 1981, Endocrinology 109: 1287-1289).

human ERβ = target: T2, human ERβ (Homo sapiens, UniProt Q92731); test: Binding to human estrogen receptors expressed by the Baculovirus/SF-9-expression system; settings: human receptors expressed by Baculovirus/SF-9-expression system
T2 construct: host or cells: Baculovirus/SF-9 expression system
T2 sequence (Q92731 whole entry): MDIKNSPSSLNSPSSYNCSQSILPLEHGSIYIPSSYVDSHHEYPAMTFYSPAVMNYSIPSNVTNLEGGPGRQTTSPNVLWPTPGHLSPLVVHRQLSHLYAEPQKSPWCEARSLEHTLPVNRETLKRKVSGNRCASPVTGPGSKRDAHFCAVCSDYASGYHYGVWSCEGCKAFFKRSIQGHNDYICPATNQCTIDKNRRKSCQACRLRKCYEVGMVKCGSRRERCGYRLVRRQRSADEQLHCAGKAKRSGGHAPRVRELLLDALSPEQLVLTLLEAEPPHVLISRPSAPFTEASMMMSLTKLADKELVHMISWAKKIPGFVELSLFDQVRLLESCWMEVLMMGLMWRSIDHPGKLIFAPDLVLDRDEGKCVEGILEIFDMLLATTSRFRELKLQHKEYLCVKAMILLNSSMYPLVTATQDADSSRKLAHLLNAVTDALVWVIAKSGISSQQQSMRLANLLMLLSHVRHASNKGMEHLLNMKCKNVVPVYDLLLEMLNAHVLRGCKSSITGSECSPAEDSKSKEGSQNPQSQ

[5] = test system: uterus (indicator of classical ERα-mediated estrogen action); test: Uterus fresh weight in ovariectomized SHR; assay type: in vivo, rat; settings: ovx SHR, daily sc injection for 4 weeks; 30 μg/kg/d (estradiol 2 μg/kg/d); FIG. 1
Text: as §1, with “euthanized. Uterus fresh weight was measured as an indicator of classical ERα-mediated estrogen action.” for “euthanized.”

[6] = ovx (estradiol-deficient) SHR, 30 μg/kg/d sc for 4 weeks

In the case of `C=C[C@@]12CCc3cc(O)ccc3[C@H]1CC[C@@]1(C)[C@H]2CC[C@@H]1O` [8β-Vinyl-estra-1,3,5(10)-trien-3,17β-diol], the cardiac index [1, 6] is reported as “augmented”, the cardiac output [1, 6] is reported as “significant improvement of cardiac output; also recorded: increase cardiac output; also recorded: augmented” and the left-ventricular stroke volume ([1]; ovx (estradiol-deficient) SHR, 30 μg/kg/d sc for 4 weeks, FIG. 5) is reported as “augmented”. For the same compound, the blood pressure ([1]; 30 μg/kg/d sc for 4 weeks) was “significant reduction of systolic as well as diastolic blood pressure; also recorded: lower systolic, mean and diastolic blood pressure; also recorded: lowered blood pressure levels”, the “effectiveness in lowering blood pressure relative to estradiol and the ERα agonist” value [1] was “more effective” and the “effect on ovx-induced adipose phenotype (body weight)” value [2] was “nor affect the ovx-induced adipose phenotype”. The “cardiac hypertrophy (heart weight)” value [3] was “significantly inhibited; also recorded: prevent the development of cardiac hypertrophy; also recorded: inhibitory effect on cardiac hyperthrophy as indicated by a reduction in heart weight”, the “binding affinity to rat prostate estrogen receptor compared to rat uterus estrogen receptor” value [4] was “higher binding affinity to the rat prostate compared to rat uterus estrogen receptor” and the “affinity to human ERβ compared to ERα” value (human ERβ) was “higher affinity to human ERβ compared to ERα”. For the same compound, the “stimulation of uterine growth (uterine weight)” value [5] was “did neither cause stimulation of uterine growth”.

For `C=C[C@]12CC[C@]3(C)[C@@H](F)[C@H](O)C[C@H]3[C@@H]1CCc1cc(O)ccc12` [17β-Fluor-9α-vinyl-estra-1,3,5(10)-trien-3,16α-diol], the cardiac output [1, 6] was “significant improvement of cardiac output; also recorded: increase cardiac output”, the blood pressure ([1]; 30 μg/kg/d sc for 4 weeks) was “significant reduction of systolic as well as diastolic blood pressure; also recorded: lower systolic, mean and diastolic blood pressure” and the “effectiveness in lowering blood pressure relative to estradiol and the ERα agonist” value [1] was “more effective”. For the same compound, the “cardiac hypertrophy (heart weight)” value [3] was “significantly inhibited; also recorded: prevent the development of cardiac hypertrophy”, the “binding affinity to rat prostate estrogen receptor compared to rat uterus estrogen receptor” value [4] was “higher binding affinity to the rat prostate compared to rat uterus estrogen receptor” and the “affinity to human ERβ compared to ERα” value (human ERβ) was “higher affinity to human ERβ compared to ERα”.
